# According to patent US9879050B2, “Substituted urea depsipeptide analogs as activators of the CLPP endopeptidase” (priority 2013, dated 2018):
# Like-named read-outs stand apart in the source and are kept apart here. *1 amine or outer side, *2 acyl side, *3 side chain or, on linkers, in order; H or OH if unused. Where a SMILES comes first, the peptide text is derived from it. Bridges are numbered along the chain shown (N, C = ends). [ ]: non-standard residue; d: D form. The star is where a group is joined. ξ: configuration not given here. Phe(3,5-F2) = N[C@@H](Cc1cc(F)cc(F)c1)C(=O)O; NH(4-OCF3-phenyl) = FC(F)(F)Oc1ccc(N*)cc1; ξPro(4S-Me) = C[C@@H]1CNC(C(=O)O)C1; aThr = C[C@H](O)[C@H](N)C(=O)O; X1 = O=C(C1COCCN1[*:1])[*:2]; CO = O=C([*:1])[*:2]; ξP = O=C(O)C1CCCN1
# Assays:
# [1] = Cytotoxicity assay, CellTiter-Glo cell viability; type: cell-based; settings: African green monkey
# Procedure: Cytotoxicity was determined by determining the effect of compounds on cell viability. Vero (kidney epithelial cells; ATCC CCL-81) monolayers were trypsinized and 5000 cells/well were seeded (10-15% confluency) into white-wall, flat bottom 96 well microwell plates (Corning) using enriched Dulbecco's Modified Eagle's Medium (Hyclone: DMEM/High Glucose) containing 10% Fetal Bovine Serum (ATCC-30-2020). Plates were incubated overnight at 37° C. in the presence of 5% CO2. Drug-free media was then replaced with media containing serial dilutions of test compound or DMSO carrier. After an additional 72 hours of incubation, viability was indirectly measured using the CellTiter-Glo® Luminescent Cell Viability (Promega) assay. Assay plates were read at peak emission wavelength of 560 nm using a EnVision® Multilabel Plate Reader (Perkin Elmer) or PHERAstar FS Multilabel reader (BMG, Cary, N.C.). […] USA, www.graphpad.com]. For each experiment, compounds were tested in duplicate. IC50 values presented are the range of two biologically independent experiments.
# S. pneumoniae R6 = test: Minimal inhibitory concentration, microbroth dilution; type: cell-based
# Procedure: Minimal inhibitory concentrations (“MICs”) were determined using the microbroth dilution method according to Clinical Laboratory Standards Institute (CLSI; National, C.F. C. L. S., Methods for Dilution Antimicrobial Susceptibility Tests for Bacteria Grow aerobically-Seventh Edition: Approved Standard M7-A7, CLSI, Wayne, Pa., USA, 2008) and were read by visual inspection. Two fold serial dilutions of test compound in 100 μL of the appropriate broth media were first prepared in 96-well round bottom microtiter plates (Nalgene Nunc International, Rochester, N.Y., USA). […] The plates were then incubated aerobically at 37° C. All strains were incubated overnight. After incubations, in all cases the MIC was recorded as the lowest concentration of drug that prevented bacterial growth. The bacterial strains for which MIC was determined as described in Table 4.
# S. aureus USA 300 ΔClpP = test: as above; type: cell-based, Staphylococcus aureus; settings: ClpP inactivated strain
# Procedure: Minimal inhibitory concentrations (“MICs”) were determined using the microbroth dilution method according to Clinical Laboratory Standards Institute (CLSI; National, C.F. C. L. S., Methods for Dilution Antimicrobial Susceptibility Tests for Bacteria Grow aerobically-Seventh Edition: Approved Standard M7-A7, CLSI, Wayne, Pa., USA, 2008) and were read by visual inspection. Two fold serial dilutions of test compound in 100 μL of the appropriate broth media were first prepared in 96-well round bottom microtiter plates (Nalgene Nunc International, Rochester, N.Y., USA). An equivalent volume (100 μL) of bacterial broth inocula containing approximately 10^5 bacterial cfu/mL was added to each well to give final concentrations of test compound starting at 200 μM. The plates were then incubated aerobically at 37° C. All strains were incubated overnight. After incubations, in all cases the MIC was recorded as the lowest concentration of drug that prevented bacterial growth. The bacterial strains for which MIC was determined as described in Table 4.
# Sa-ClpP [2] = target: T1, Sa-ClpP (Staphylococcus aureus, UniProt Q2G036); test: ADEP displacement fluorescence polarization assay; type: binding, S. aureus
# T1 construct: made in house; host or cells: E. coli BL21 (DE3)
# T1 sequence (Q2G036 whole entry): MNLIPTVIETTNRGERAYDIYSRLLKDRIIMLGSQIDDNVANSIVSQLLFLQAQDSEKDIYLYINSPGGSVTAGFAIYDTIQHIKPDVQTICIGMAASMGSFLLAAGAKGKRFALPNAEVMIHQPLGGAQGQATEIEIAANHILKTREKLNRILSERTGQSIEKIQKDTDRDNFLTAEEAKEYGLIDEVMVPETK
# Procedure: A fluorescence polarization (FP) assay was used to determine the activity of the disclosed compounds in displacing an ADEP analogue from ClpP. Briefly, the assay was performed in black 384 well, flat bottom, low volume plates (Greiner Bio-One, Monroe, N.C., catalog #784076). 20 μL of a pre-equilibrated (1 hr, room temperature) master mix (1 μM Sa-ClpP, 2% DMSO (v/v) and 50 nM FP probe in Tris*HCl, pH 8.0)) was pipetted into each well using a Well-Mate (Thermo Scientific, Waltham, Mass.). Sa-ClpP was prepared as described above for the ClpP activation assay. The FP probe was ADEP 2591 (structure shown above). The ADEP 2591 comprises a TAMRA fluorophore linked to a core based on modified ADEP 2378 via a short alkyl linker. Using pin transfer, approximately 0.4 μL (2% v/v DMSO) of each compound or control was added per well. After addition of compounds and controls, plates were allowed to incubate for an additional 120 minutes at room temperature. All assays were performed in triplicate. Polarization was monitored using an EnVision Multilabel reader (Perkin-Elmer, Waltham, Mass.) by exciting the FP probe at 530±25 nm, and monitoring fluorescence intensity of both parallel and perpendicular polarized light at 579±25 nm. Readout was in millipolarization units (mP).
# Signal gain and G factors were determined in wells containing 20 μM ADEP 2378, which had been previously verified (data not shown) as containing completely unbound ADEP 2591. Data collected was normalized to values obtained from positive (20 μM ADEP 2378) or negative (DMSO) controls. Curves were fit with non-linear regression using the equation “log [inhibitor]vs. Response-variable slope (four parameters)-symmetrical” in the program Prism 6 (GraphPad Software, La Jolla, Calif. USA, www.graphpad.com). The structures for ADEP 2378 and ADEP 2591 are shown above. ADEP 2378 is (E)-N-((S)-1-(((2R,6S,8aS,14aS,20S,23aS)-2,6-dimethyl-5,8,14,19,23-pentaoxooctadecahydro-1H,5H,14H,19H-pyrido[2,1-i]dipyrrolo[2,1-c:2′,1′-1][1]oxa[4,7,10,13]tetraazacyclohexadecin-20-yl)amino)-1-oxo-3-phenylpropan-2-yl)pent-2-enamide. ADEP 2591 is 5-(3-(3-((6S,9S,11aS,17S,20aS)-6,10-dimethyl-5,8,11,16,20-pentaoxo-17-((S)-2-((E)-pent-2-enamido)-3-phenylpropanamido)hexadecahydro-1H,5H,16H-dipyrrolo[2,1-c:2′,1′-1][1]oxa[4,7,10,13]tetraazacyclohexadecin-9-yl)propyl)thioureido)-2-(6-(dimethylamino)-3-(dimethyliminio)-3H-xanthen-9-yl)benzoate.
# Sa-ClpP [3] = target: T1, Sa-ClpP; test: ClpP activation, EnzCheck Protease Assay with Bodipy-FL casein (second described method); type: biochemical, S. aureus
# Procedure: Alternatively, the assay was carried out using EnzCheck Protease Assay (Molecular Probes, Catalog #E6638). The assay was performed in black 384 well, flat bottom, low volume plates (Greiner Bio-One, Monroe, N.C., catalog #784076). 10 μL of Tris.HCl buffer, pH 8.0 with 0.01% Triton X-100 was pipetted into each well using a Well-Mate (Thermo Scientific, Waltham, Mass.). 0.4 μL test compounds or controls (2% DMSO v/v) were added to each well using a Biomek FX liquid handling robot (Beckman Coulter, Indianapolis Ind.). After addition of test compounds and controls, 10 μL of master mix containing 2 μM Sa-ClpP and 2 μM substrate (Bodipy-FL labeled casein) in Tris*HCl buffer, pH 8.0 with 0.01% (v/v) Triton X-100, was pipetted into each well. All assays were performed in triplicate, under linear velocity conditions. Increase in fluorescent signal following activation of Sa-ClpP by test compounds and controls was measured over time period of 30 mins using filters with excitation at 485±15 nm and emission at 520±25 nm on a PHERAstar FS Multilabel reader (BMG, Cary, N.C.). […] Data analysis was done by measuring rate of casein degradation over time (slopes). Computed degradation rates (slopes) were normalized to positive (ADEP4) or negative (DMSO) controls. Using nonlinear regression curve fitting EC50 values and % activation were determined using the equation “log [agonist]vs. Response-variable slope (four parameters)-symmetrical” in the program Prism 6 (GraphPad Software, La Jolla, Calif. USA, www.graphpad.com).
# [4] = Streptococcus pneumoniae, R6; read-out: Minimal Inhibitory Concentration S. pneumoniae R6
structure (smiles),measurement,setting,value
"C[C@@H]1NC(=O)[C@H](C)N(C)C(=O)C2CCCN2C(=O)[C@@H](NC(=O)[C@H](Cc2cc(F)cc(F)c2)NC(=O)Nc2ccc(OC(F)(F)F)cc2)[C@H](C)OC(=O)C2CCCN2C1=O (stereo partly drawn) [Compound 27, (2S)-3-(3,5-Difluorophenyl)-N-((6S,9S,11aS,17S,18S)-6,9,10,18-Tetramethyl-5,8,11,16,20-Pentaoxohexadecahydro-1H,5H,16H-Dipyrrolo[2,1-C:2′,1′-L][1]Oxa[4,7,10,13]Tetraazacyclohexadecin-17-Yl)-2-(3-(4-(Trifluoromethoxy)Phenyl)Ureido)Propanamide]",IC50 at 72 h,[1],10.5 ± 1.4 µM
same,MIC,S. pneumoniae R6; [4],0.058 µM
same,Minimal Inhibitory Concentration S. aureus USA 300 ΔClpP,S. aureus USA 300 ΔClpP,100 µM
same,IC50,"Sa-ClpP [2]; 1 μM Sa-ClpP, 50 nM FP probe ADEP 2591, read-out: ADEP Displacement IC50",7.7 ± 0.2 µM
same,EC50,Sa-ClpP [3]; read-out: ClpP Activation EC50 (converted),0.31 ± 0.01 µM
"C[C@H]1CC2C(=O)O[C@@H](C)[C@H](NC(=O)[C@H](Cc3cc(F)cc(F)c3)NC(=O)Nc3ccc(OC(F)(F)F)cc3)C(=O)N3CCCC3C(=O)N(C)[C@@H](C)C(=O)N[C@@H](C)C(=O)N2C1 (stereo partly drawn) [Compound 28, (2S)-3-(3,5-Difluorophenyl)-N-((2S,6S,9S,11aS,17S,18S)-2,6,9,10,18-Pentamethyl-5,8,11,16,20-Pentaoxohexadecahydro-1H,5H,16H-Dipyrrolo[2,1-C:2′,1′-L][1]Oxa 1[4,7,10,13]Tetraazacyclohexadecin-17-Yl)-2-(3-(4-(Trifluoromethoxy)Phenyl)Ureido)Propanamide]",IC50 at 72 h,[1],16.1 ± 2.4 µM
same,MIC,S. pneumoniae R6; [4],0.029 µM
same,IC50,Sa-ClpP [2],5.6 ± 0.2 µM
same,EC50,Sa-ClpP [3],0.19 ± 0.01 µM
"CCc1ccc(NC(=O)N[C@@H](Cc2cc(F)cc(F)c2)C(=O)N[C@@H]2C(=O)N3CCCC3C(=O)N(C)[C@@H](C)C(=O)N[C@@H](C)C(=O)N3CCCC3C(=O)O[C@H]2C)cc1 (stereo partly drawn) [Compound 29, (2S)-3-(3,5-Difluorophenyl)-2-(3-(4-Ethylphenyl)Ureido)-N-((6S,9S,11aS,17S,18S)-6,9,10,18-Tetramethyl-5,8,11,16,20-Pentaoxohexadecahydro-1H,5H,16H-Dipyrrolo[2,1-C:2′,1′-L][1]Oxa[4,7,10,13]Tetraazacyclohexadecin-17-Yl)Propanamide]",IC50 at 72 h,[1],26.8 ± 1.3 µM
same,MIC,S. pneumoniae R6; [4],0.031 µM
same,Minimal Inhibitory Concentration S. aureus USA 300 ΔClpP,S. aureus USA 300 ΔClpP,100 µM
same,IC50,Sa-ClpP [2],5.9 ± 0.2 µM
same,EC50,Sa-ClpP [3],0.25 ± 0.02 µM
"CCc1ccc(NC(=O)N[C@@H](Cc2cc(F)cc(F)c2)C(=O)N[C@@H]2C(=O)N3CCCC3C(=O)N(C)[C@@H](C)C(=O)N[C@@H](C)C(=O)N3C[C@@H](C)CC3C(=O)O[C@H]2C)cc1 (stereo partly drawn) [Compound 30, (S)-3-(3,5-Difluorophenyl)-2-(3-(4-Ethylphenyl)Ureido)-N-((2S,6S,9S,11aS,17S,18S,20aS)-2,6,9,10,18-Pentamethyl-5,8,11,16,20-Pentaoxohexadecahydro-1H,5H,16H-Dipyrrolo[2,1-C:2′,1′-L][1]Oxa[4,7,10,13]Tetraazacyclohexadecin-17-Yl)Propanamide]",IC50 at 72 h,[1],28.8 ± 3.7 µM
same,MIC,S. pneumoniae R6; [4],0.008 µM
same,Minimal Inhibitory Concentration S. aureus USA 300 ΔClpP,S. aureus USA 300 ΔClpP,50 µM
same,IC50,Sa-ClpP [2],4 ± 0.1 µM
same,EC50,Sa-ClpP [3],0.43 ± 0.02 µM
"C[C@H]1CC2C(=O)O[C@@H](C)[C@H](NC(=O)[C@H](Cc3cc(F)cc(F)c3)NC(=O)Nc3ccc(OC(F)(F)F)cc3)C(=O)N3C[C@H](O)CC3C(=O)N(C)[C@@H](C)C(=O)N[C@@H](C)C(=O)N2C1 (stereo partly drawn) [Compound 32, (S)-3-(3,5-Difluorophenyl)-N-((2S,6S,9S,11aS,13R,17S,18S,20aS)-13-Hydroxy-2,6,9,10,18-Pentamethyl-5,8,11,16,20-Pentaoxohexadecahydro-1H,5H,16H-Dipyrrolo[2,1-C:2′,1′-L][1]Oxa[4,7,10,13]Tetraazacyclohexadecin-17-Yl)-2-(3-(4-(Trifluoromethoxy)Phenyl)Ureido)Propanamide]",IC50 at 72 h,[1],28.3 ± 0.6 µM
same,MIC,S. pneumoniae R6; [4],0.049 µM
same,Minimal Inhibitory Concentration S. aureus USA 300 ΔClpP,S. aureus USA 300 ΔClpP,100 µM
same,IC50,Sa-ClpP [2],7 ± 0.4 µM
same,EC50,Sa-ClpP [3],0.4 ± 0.01 µM
"C[C@H]1CC2C(=O)O[C@@H](C)[C@H](NC(=O)[C@H](Cc3cc(F)cc(F)c3)NC(=O)Nc3ccc(OC(F)(F)F)cc3)C(=O)N3CCCC3C(=O)N3CCOCC3C(=O)N[C@@H](C)C(=O)N2C1 (stereo partly drawn) [Compound 34, (S)-3-(3,5-Difluorophenyl)-2-(3-(4-(Trifluoromethoxy)Phenyl)Ureido)-N-((6aS,12S,13S,15aS,17S,21S,23aS)-13,17,21-Trimethyl-6,11,15,20,23-Pentaoxooctadecahydro-6H,11H,15H-[1,4]Oxazino[3,4-I]Dipyrrolo[2,1-C:2′,1′-L][1]Oxa[4,7,10,13]Tetraazacyclohexadecin-12-Yl)Propanamide] ({NH(4-OCF3-phenyl)-CO}-[Phe(3,5-F2)][aThr][ξP][X1]A[ξPro(4S-Me)]; ester 2-C)",IC50 at 72 h,[1],26 ± 2.6 µM
same,MIC,S. pneumoniae R6; [4],0.049 µM
same,Minimal Inhibitory Concentration S. aureus USA 300 ΔClpP,S. aureus USA 300 ΔClpP,50 µM
same,IC50,Sa-ClpP [2],6.1 ± 0.4 µM
same,EC50,Sa-ClpP [3],0.33 ± 0.01 µM
"CN[C@@H]1[C@H](O)[C@H](NC)[C@H]2O[C@@]3(O)C(=O)C[C@@H](C)O[C@H]3O[C@@H]2[C@H]1O [Spectinomycin, spectinomycin, reference compound]",MIC,"S. pneumoniae R6; Streptococcus pneumoniae, R6, read-out: Minimal Inhibitory Concentration S. pneumoniae R6",6.3 µM
same,Minimal Inhibitory Concentration S. aureus USA 300 ΔClpP,S. aureus USA 300 ΔClpP,25 µM
